According to patent US4784988A, “Peptides correlated to lysozyme” (Spa Societa' Prodotti Antibiotici S.p.A., priority 1985, dated 1988):
Where no end group is shown, it is not given here.

What was measured:
[1] = type: physicochemical
Method: Having obtained the desired peptide sequence, it is then necessary to proceed with the splitting from the solid support and deprotection of the residual functional groups, which is carried out by action of gaseous hydrobromic acid on the peptide-resin suspension, working in trifluoroacetic acid and in presence of adequate quantities of anisole.

hyperalgesia of the paw = assay: Randall-Selitto test, painful threshold on compression of the paw made hyperalgesic with brewer's yeast; type: in vivo, rats; conditions: rat, brewer's yeast 10 mg/rat, product injected in the paw, after 3 hours, vs irritant alone
Description: With regard to the biological activity of the peptide mixtures obtained by enzymatic hydrolysis of lysozyme, like many of the peptides isolated at the pure state and/or reproduced through synthesis, it is observed, as previously reported, that they lack the bacteriolytic activity typical of the integral lysozyme structure, whereas they present important pharmacological and therapeutic properties. It was therefore possible for example to evidence a marked analgesic activity of numerous peptides, by testing their anti-nociceptive effects on laboratory animals using the well-known Randall-Selitto method.
In groups of 5-10 rats, hyperalgesia of the paw is induced by administering an irritant agent, for example brewer's yeast (10 mg/rat), into the planter aponeurosis and at the same time injecting the product under test at different doses. One group of rats is treated with the irritant agent alone. At intervals, in particular after 3 hours, the painful threshold on compression of the edematous paw is measured, i.e. the minimum pressure (in g) causing the sudden withdrawal of the paw of the animal.
The results are expressed as percentage increase in the mean painful threshold compared to the paw treated with the algogenic agent alone (without the drug). As an example, the data relative to the peptide mixture denominated "Fraction P.2" of chromatographic origin (See Scheme 1) are reported, as well as the individual peptides (I), (II) and (III).

[2] = system: cell colony-forming capacity; type: cell-based
herpes simplex Type 1 = assay: herpes simplex virus plaque formation on Vero cell monolayers; type: cell-based; conditions: herpes simplex Type 1, Vero cells, 72 hours' incubation
Method: Yet other example, the mixture and the peptides of the present invention resulted active in an antiviral sense in numerous cases. They were submitted to various tests to verify their influence on the capacity of the herpes simplex virus to infect and form plaques on monolayer cell cultures. To this purpose, a viral strain of herpes simplex Type 1 at suitable concentration was added to monolayers of Vero cells (Flow). After being in contact for 1 hour, the virus was removed and the monolayer washed and then covered with fresh culture medium […] (Flow), adding at the end suitable quantities of the substance under test. After 72 hours' incubation, the plates were coloured with neutral red and the visible plaques counted. […] Similar results were obtained with a peptide fraction isolated in an analogous manner after hydrolysis of lysozyme with trypsin and chymotrypsin. Even more surprising results were obtained with peptides such as (I) or (III) which resulted capable of inducing analogous reductions in the viral plaque-forming units at considerably lower concentrations (0.1-1 mg/ml).

## NTDGSTDY [peptide (II)]
[1]
  solubility in water: very soluble in water
Hyperalgesia of the paw; dose 0.5 mg/rat
  Δ% of the algogenic threshold: 30%
Hyperalgesia of the paw; dose 0.75 mg/rat
  Δ% of the algogenic threshold: 60%
Hyperalgesia of the paw; dose 1 mg/rat
  Δ% of the algogenic threshold: 90%

## NTQATNR [peptide (III)]
[2]
  cytotoxic effects (cell colony-forming capacity): devoid of cytotoxic effects
Herpes simplex Type 1
  concentration inducing analogous reductions in the viral plaque-forming units: 0.1-1 mg/ml
Hyperalgesia of the paw; dose 1 mg/rat
  Δ% of the algogenic threshold: 30%
Hyperalgesia of the paw; dose 2 mg/rat
  Δ% of the algogenic threshold: 60%
Hyperalgesia of the paw; dose 4 mg/rat
  Δ% of the algogenic threshold: 100%

## NTQATNRNTDGSTDY [peptide (I)]
[2]
  cytotoxic effects (cell colony-forming capacity): devoid of cytotoxic effects
Herpes simplex Type 1
  concentration inducing analogous reductions in the viral plaque-forming units: 0.1-1 mg/ml
Hyperalgesia of the paw; dose 2 mg/rat
  Δ% of the algogenic threshold: 120%

## lysozyme: small globular protein of 129 amino acid residues extracted from hen egg-white
Herpes simplex Type 1; 5 mg/ml
  inhibition of the viral capacity to form plaques: 75%
